Test results reported in patent US9034855B2, “Substituted phenylacetate and phenylpropane amides and use thereof” (Bayer Intellectual Property GmbH, priority 2010, dated 2015).

Tests used:
human V1a receptor = target: T1, human V1a receptor (Homo sapiens, UniProt P37288); test: Cellular in vitro assay for determining the vasopressin receptor activity (aequorin luminescence, recombinant CHO cells), human V1a; type: cell-based; conditions: CHO cells expressing aequorin, transfected with human V1a receptor; agonist [Arg8]-vasopressin; read-out: IC50 hV1a
T1 construct: expressed in transfected cells; host or cells: CHO K1 (ATCC), constitutively expressing modified aequorin
T1 sequence (P37288 whole entry): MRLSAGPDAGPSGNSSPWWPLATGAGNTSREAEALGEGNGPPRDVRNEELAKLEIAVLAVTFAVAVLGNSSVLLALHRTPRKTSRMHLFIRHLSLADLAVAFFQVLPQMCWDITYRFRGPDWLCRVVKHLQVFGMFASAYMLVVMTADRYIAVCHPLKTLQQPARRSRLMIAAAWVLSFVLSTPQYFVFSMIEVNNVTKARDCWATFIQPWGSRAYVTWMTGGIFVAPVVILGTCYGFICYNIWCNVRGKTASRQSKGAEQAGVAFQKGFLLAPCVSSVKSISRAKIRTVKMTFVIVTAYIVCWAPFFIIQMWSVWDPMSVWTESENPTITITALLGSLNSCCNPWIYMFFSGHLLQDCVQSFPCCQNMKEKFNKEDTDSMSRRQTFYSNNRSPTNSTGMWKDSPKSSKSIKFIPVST
Description: (§1) B-1. Cellular In Vitro Assay for Determining the Vasopressin Receptor Activity
(§2) The identification of agonists and antagonists of the V1a and V2 vasopressin receptors from humans and rats and also the quantification of the activity of the substances described here takes place using recombinant cell lines. These cells derive originally from a hamster's ovary epithelial cell (Chinese Hamster Ovary, CHO K1, ATCC: American Type Culture Collection, Manassas, Va. 20108, USA). The test cell lines constitutively express a modified form of the calcium-sensitive photoprotein aequorin, which, after reconstitution with the cofactor coelenterazine, emits light when there are increases in the free calcium concentration (Rizzuto R., Simpson A. W., Brini M., Pozzan T.; Nature 358 (1992) 325-327). In addition, the cells are stably transfected with the human or rat V1a or V2 receptors. In the case of the Gs-coupling V2 receptors, the cells are stably transfected with a further gene, which codes for the promiscuous Gα16 protein (Amatruda T. T., Steele D. A., Slepak V. Z., Simon M A., Proc. Na. Acad. Sci. USA 88 (1991), 5587-5591), either independently or as a fusion gene. The resulting vasopressin receptor test cells react to stimulation of the recombinantly expressed vasopressin receptors by intracellular release of calcium ions, which can be quantified by the resulting aequorin luminescence using a suitable luminometer (Milligan G., Marshall F., Rees S., Trends in Pharmaco. Sci. 17 (1996) 235-237).
(§3) On the day before the assay, the cells are plated out in culture medium (DMEM, 10% FCS, 2 mM glutamine, 10 mM HEPES) in 384-well microtiter plates and kept in a cell incubator (96% atmospheric humidity, 5% v/v carbon dioxide, 37° C.). On the day of the assay, the culture medium is replaced by a Tyrode solution (140 mM sodium chloride, 5 mM potassium chloride, 1 mM magnesium chloride, 2 mM calcium chloride, 20 mM glucose, 20 mM HEPES), which additionally contains the cofactor coelenterazine (50 μM), and the microtiter plate is then incubated for a further 3-4 hours. The test substances in various concentrations are placed for 10 to 20 minutes in the wells of the microtiter plate before the agonist [Arg8]-vasopressin is added, and the resulting light signal is measured immediately in the luminometer. The IC50 values are calculated using the GraphPad PRISM computer program (Version 3.02).
(§4) Table A below lists representative IC50 values for the compounds according to the invention transfected with the human V1a or V2 receptor: […]

human V2 receptor = target: T2, human V2 receptor (Homo sapiens, UniProt P30518); test: Cellular in vitro assay for determining the vasopressin receptor activity (aequorin luminescence, recombinant CHO cells), human V2; type: cell-based; conditions: CHO cells expressing aequorin and Gα16, transfected with human V2 receptor; agonist [Arg8]-vasopressin; read-out: IC50 hV2
T2 construct: expressed in transfected cells; host or cells: CHO K1 (ATCC), constitutively expressing modified aequorin, co-transfected with promiscuous G-alpha-16
T2 sequence (P30518 whole entry): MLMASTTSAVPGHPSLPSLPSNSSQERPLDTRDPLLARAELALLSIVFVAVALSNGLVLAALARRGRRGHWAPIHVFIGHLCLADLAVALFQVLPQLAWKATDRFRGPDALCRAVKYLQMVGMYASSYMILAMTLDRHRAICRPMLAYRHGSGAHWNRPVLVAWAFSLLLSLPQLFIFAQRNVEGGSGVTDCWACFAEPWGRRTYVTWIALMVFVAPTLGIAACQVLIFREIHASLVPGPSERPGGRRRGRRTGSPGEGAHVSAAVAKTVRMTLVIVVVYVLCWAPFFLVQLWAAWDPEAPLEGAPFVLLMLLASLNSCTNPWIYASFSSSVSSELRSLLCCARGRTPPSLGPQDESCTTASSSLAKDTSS
Description: as §1, §2, §3, §4

SMILES	IC50 (human V1a receptor)	IC50 (human V2 receptor)
CC(C)(NC(=O)C(NC(=O)Cn1nc(-c2ccc(Cl)cc2)n(C2CC2)c1=O)c1cccc(C(F)(F)F)c1)C(=O)O (racemic) [Example 12, N-{({[3-(4-Chlorophenyl)-4-cyclopropyl-5-oxo-4,5-dihydro-1H-1,2,4-triazol-1-yl]acetyl}amino) [3-(trifluoromethyl)phenyl]acetyl}-2-methylalanine]	24 nM	182 nM
COCCNC(=O)C[C@H](NC(=O)Cn1nc(-c2ccc(Cl)cc2)n(C[C@H](O)C(F)(F)F)c1=O)c1cccc(C(F)(F)F)c1 [Example 57, (3S)-3-[({3-(4-Chlorophenyl)-5-oxo-4-[(2S)-3,3,3-trifluoro-2-hydroxypropyl]-4,5-dihydro-1H-1,2,4-triazol-1-yl}acetyl)amino]-N-(2-methoxyethyl)-3-[3-(trifluoromethyl)phenyl]propanamide]	14.5 nM	7.4 nM
O=C(Cn1nc(-c2ccc(Cl)cc2)n(C[C@H](O)C(F)(F)F)c1=O)NC(C(=O)NC1(C(=O)O)CC1)c1cccc(C(F)(F)F)c1 (single isomer, unassigned) [Example 3]	554 nM	467 nM
COCCn1c(-c2ccc(Cl)s2)nn(CC(=O)NC(C(=O)NC(C)(C)CO)c2cccc(C(F)(F)F)c2)c1=O (single isomer, unassigned) [Example 43, 2-({[3-(5-Chloro-2-thienyl)-4-(2-methoxyethyl)-5-oxo-4,5-dihydro-1H-1,2,4-triazol-1-yl]acetyl}amino)-N-(1-hydroxy-2-methylpropan-2-yl)-2-[3-(trifluoromethyl)phenyl]acetamide]	60 nM	1600 nM
O=C(C[C@H](NC(=O)Cn1nc(-c2ccc(Cl)cc2)n(C2CC2)c1=O)c1ccccc1C(F)(F)F)NCCO [Example 55, (3S)-3-({[3-(4-Chlorophenyl)-4-cyclopropyl-5-oxo-4,5-dihydro-1H-1,2,4-triazol-1-yl]acetyl}-amino)-N-(2-hydroxyethyl)-3-[2-(trifluoromethyl)phenyl]propanamide]	6 nM	569 nM
CC(C)(NC(=O)C(NC(=O)Cn1nc(-c2ccc(Cl)cc2)n(CCC(F)(F)F)c1=O)c1ccccc1C(F)(F)F)C(N)=O (racemic) [Example 32, N^2-{({[3-(4-Chlorophenyl)-5-oxo-4-(3,3,3-trifluoropropyl)-4,5-dihydro-1H-1,2,4-triazol-1-yl]acetyl}amino) [2-(trifluoromethyl)phenyl]acetyl}-2-methylalaninamide]	7.1 nM	1270 nM
CC(C)(NC(=O)C(NC(=O)Cn1nc(-c2ccc(Cl)cc2)n(CCC(F)(F)F)c1=O)c1ccccc1Cl)C(N)=O (racemic) [Example 35, N^2-[(2-Chlorophenyl)({[3-(4-chlorophenyl)-5-oxo-4-(3,3,3-trifluoropropyl)-4,5-dihydro-1H-1,2,4-triazol-1-yl]acetyl}amino)acetyl]-2-methylalaninamide]	8.9 nM	655 nM
COC(=O)C(C)(C)NC(=O)C(NC(=O)Cn1nc(-c2ccc(Cl)cc2)n(C2CC2)c1=O)c1cccc(C(F)(F)F)c1 (racemic) [Example 11, Methyl N-{({[3-(4-chlorophenyl)-4-cyclopropyl-5-oxo-4,5-dihydro-1H-1,2,4-triazol-1-yl]acetyl}-amino)[3-(trifluoromethyl)phenyl]acetyl}-2-methylalaninate]	28 nM	497 nM
O=C(Cn1nc(-c2ccc(Cl)cc2)n(C[C@H](O)C(F)(F)F)c1=O)NC(C(=O)NCCOC(F)(F)F)c1cccc(C(F)(F)F)c1 (single isomer, unassigned) [Example 60]	3 nM	19.7 nM
CC(C)(NC(=O)C(NC(=O)Cn1nc(-c2ccc(Cl)cc2)n(C[C@H](O)C(F)(F)F)c1=O)c1cccc(C(F)(F)F)c1)C(=O)O (single isomer, unassigned) [Example 26]	1.7 nM	2.3 nM
CC(C)(NC(=O)C(NC(=O)Cn1nc(-c2ccc(Cl)cc2)n(Cc2ccccc2F)c1=O)c1cccc(Cl)c1Cl)C(N)=O (racemic) [Example 36, N^2-[({[3-(4-Chlorophenyl)-4-(2-fluorobenzyl)-5-oxo-4,5-dihydro-1H-1,2,4-triazol-1-yl]acetyl}-amino)(2,3-dichlorophenyl)acetyl]-2-methylalaninamide]	88.2 nM	780 nM
COCCNC(=O)C[C@H](NC(=O)Cn1nc(-c2ccc(Cl)cc2)n(C[C@H](O)C(F)(F)F)c1=O)c1ccccc1C(F)(F)F [Example 58, (3S)-3-[({3-(4-Chlorophenyl)-5-oxo-4-[(2S)-3,3,3-trifluoro-2-hydroxypropyl]-4,5-dihydro-1H-1,2,4-triazol-1-yl}acetyl)amino]-N-(2-methoxyethyl)-3-[2-(trifluoromethyl)phenyl]propanamide]	3.5 nM	136 nM
CC(C)(CO)NC(=O)C(NC(=O)Cn1nc(-c2ccc(Cl)cc2)n(C[C@H](O)C(F)(F)F)c1=O)c1cccc(C(F)(F)F)c1 (single isomer, unassigned) [Example 42]	38 nM	158 nM
CCOC(=O)C1(NC(=O)C(NC(=O)Cn2nc(-c3ccc(Cl)cc3)n(C[C@H](O)C(F)(F)F)c2=O)c2cccc(C(F)(F)F)c2)CC1 (stereo partly drawn) [Example 1, Ethyl 1-({[({3-(4-chlorophenyl)-5-oxo-4-[(2S)-3,3,3-trifluoro-2-hydroxypropyl]-4,5-dihydro-1H-1,2,4-triazol-1-yl}acetyl)amino][3-(trifluoromethyl)phenyl]acetyl}amino)cyclopropanecarboxylate]	9.2 nM	58 nM
CC(C)(NC(=O)C(NC(=O)Cn1nc(-c2ccc(Cl)cc2)n(Cc2ccccc2F)c1=O)c1ccccc1Cl)C(N)=O (racemic) [Example 33, N^2-[(2-Chlorophenyl)({[3-(4-chlorophenyl)-4-(2-fluorobenzyl)-5-oxo-4,5-dihydro-1H-1,2,4-triazol-1-yl]acetyl}amino)acetyl]-2-methylalaninamide]	17 nM	1050 nM
O=C(Cn1nc(-c2ccc(Cl)cc2)n(C[C@H](O)C(F)(F)F)c1=O)NC(C(=O)NC1(C(=O)O)CC1)c1cccc(C(F)(F)F)c1 (single isomer, unassigned) [Example 4]	1.9 nM	4.1 nM
CC(C)(NC(=O)C(NC(=O)Cn1nc(-c2ccc(Cl)cc2)n(C[C@H](O)C(F)(F)F)c1=O)c1cccc(C(F)(F)F)c1)C(N)=O (single isomer, unassigned) [Example 28]	1380 nM	346 nM
C[C@](NC(=O)Cn1nc(-c2ccc(Cl)cc2)n(C[C@H](O)C(F)(F)F)c1=O)(C(=O)NCCC(N)=O)c1cccc(C(F)(F)F)c1 [Example 19, N^3-{(2R)-2-[({3-(4-Chlorophenyl)-5-oxo-4-[(2S)-3,3,3-trifluoro-2-hydroxypropyl]-4,5-dihydro-1H-1,2,4-triazol-1-yl}acetyl)amino]-2-[3-(trifluoromethyl)phenyl]propanoyl}-beta-alaninamide]	0.6 nM	1.1 nM
CC(C)(NC(=O)C(NC(=O)Cn1nc(-c2ccc(Cl)cc2)n(C[C@H](O)C(F)(F)F)c1=O)c1cccc(C(F)(F)F)c1)C(N)=O (single isomer, unassigned) [Example 29]	1 nM	3.3 nM
COC(=O)C(C)(C)NC(=O)C[C@H](NC(=O)Cn1nc(-c2ccc(Cl)cc2)n(C[C@H](O)C(F)(F)F)c1=O)c1cccc(C(F)(F)F)c1 [Example 38, Methyl N-{(3S)-3-[({3-(4-chlorophenyl)-5-oxo-4-[(2S)-3,3,3-trifluoro-2-hydroxypropyl]-4,5-dihydro-1H-1,2,4-triazol-1-yl}acetyl)amino]-3-[3-(trifluoromethyl)phenyl]propanoyl}-2-methylalaninate]	32.8 nM	38.6 nM
CCOC(=O)C1(NC(=O)C(NC(=O)Cn2nc(-c3ccc(Cl)cc3)n(C3CC3)c2=O)c2cccc(C(F)(F)F)c2)CC1 (racemic) [Example 5, Ethyl 1-({({[3-(4-chlorophenyl)-4-cyclopropyl-5-oxo-4,5-dihydro-1H-1,2,4-triazol-1-yl]acetyl}-amino) [3-(trifluoromethyl)phenyl]acetyl}amino)cyclopropanecarboxylate]	42 nM	1170 nM
